Legend:
Type in all cases: cell-based
[1] = tested on: human bronchial epithelial cells (16HBEo14); experiment: Induction of IL-8 in HBE cells; conditions: for IL-8: 8 h
Procedure: The murine macrophage cell line RAW 264.7, THP-1 cells (human monocytes), a human epithelial cell line (A549), human bronchial epithelial cells (16HBEo14), and whole human blood were used. HBE cells were grown in MEM with Earle's. THP-1 cells were grown and maintained in RPMI 1640 medium. The RAW and A549 cell lines were maintained in DMEM supplemented with 10% fetal calf serum. […] DMEM was aspirated from cells grown overnight and replaced with fresh medium. After incubation of the cells with peptide, the release of chemokines into the culture supernatant was determined by ELISA (R&D Systems, Minneapolis, Minn.).

[2] = tested on: A549 human epithelial cells; experiment: LPS induced IL-8 production in A549 cells (ELISA); conditions: 100 ng/ml E. coli O111:B4 LPS, 24 hours
[3] = tested on: mouse macrophage RAW cell line; experiment: Phosphorylation of MAP kinases (Western blot) in RAW cell line
Procedure: The cells were seeded at 2.5×10^5−5×10^5 cells/ml and left overnight. They were washed once in media, serum starved in the morning (serum free media—4 hrs). The media was removed and replaced with PBS, then sat at 37° C. for 15 minutes and then brought to room temp for 15 minutes. Peptide was added (concentrations 0.1 μg/ml−50 μg/ml) or H2O and incubated 10 min. The PBS was very quickly removed and replaced with ice-cold radioimmunoprecipitation (RIPA) buffer with inhibitors (NaF, B-glycerophosphate, MOL, Vanadate, PMSF, Leupeptin Aprotinin). The plates were shaken on ice for 10-15 min or until the cells were lysed and the lysates collected. The procedure for THP-1 cells was slightly different; more cells (2×10^6) were used. They were serum starved overnight, and to stop the reaction 1 ml of ice-cold PBS was added then they sat on ice 5-10 min, were spun down then resuspended in RIPA. Protein concentrations were determined using a protein assay (Pierce, Rockford, Ill.). Cell lysates (20 μg of protein) were separated by SDS-PAGE and transferred to nitrocellulose filters. […] The freshly harvested cells were consistently >99% viable as assessed by their ability to exclude trypan blue. […] Protein content was analyzed and approximately 30 μg of each sample was loaded in a 12% SDS-PAGE gel. […] Phosphorylation was detected with phosphorylation-specific antibodies.

SMILES: CC[C@H](C)[C@H](N)C(=O)N[C@@H](CC(C)C)C(=O)N1CCC[C@H]1C(=O)N[C@@H](Cc1c[nH]c2ccccc12)C(=O)N[C@@H](CCCCN)C(=O)N[C@@H](Cc1c[nH]c2ccccc12)C(=O)N1CCC[C@H]1C(=O)N[C@@H](Cc1c[nH]c2ccccc12)C(=O)N[C@@H](Cc1c[nH]c2ccccc12)C(=O)N1CCC[C@H]1C(=O)N[C@@H](Cc1c[nH]c2ccccc12)C(=O)N[C@@H](CCCNC(=N)N)C(=O)N[C@@H](CCCNC(=N)N)C(N)=O [SEQ ID NO: 2]
- induction of IL-8 [1]: significantly induced IL-8
- IL-8 ([1]; peptide 0.1 μg/ml): 670 ± 155 pg/mL
- IL-8 ([1]; peptide 1 μg/ml): 712 ± 205 pg/mL
- IL-8 ([1]; peptide 10 μg/ml): 941 ± 15 pg/mL
- IL-8 ([1]; peptide 50 μg/ml): 1490 ± 715 pg/mL
- Inhibition of IL-8 ([2]; SEQ ID NO: 2 0.1 μg/ml): 6.8 ± 9.6%
- Inhibition of IL-8 ([2]; SEQ ID NO: 2 1 μg/ml): 12.8 ± 24.5%
- Inhibition of IL-8 ([2]; SEQ ID NO: 2 10 μg/ml): 29.0 ± 26.0%
- Inhibition of IL-8 ([2]; SEQ ID NO: 2 50 μg/ml): 39.8 ± 1.6%
- Inhibition of IL-8 ([2]; SEQ ID NO: 2 100 μg/ml): 45.0 ± 3.5%
- phosphorylation of p38 and ERK1/2 [3]: dose dependent phosphorylation

Source: patent US20070134261A1, “Effectors of innate immunity” (priority 2001, published 2007)
